Measurements from PubChem BioAssay (NCI).
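GI50: concentration for 50% inhibition of growth. TGI marks complete inhibition of growth.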

How the values were obtained:
Experiment in all cases: inhibition of tumour cell growth, NCI panel, 384-well format
ACHN renal = test system: ACHN renal
SN12C renal = test system: SN12C renal
OVCAR-3 ovarian = test system: OVCAR-3 ovarian
UO-31 renal = test system: UO-31 renal
SR leukemia = test system: SR leukemia
EKVX NSCLC = test system: EKVX NSCLC
SW-620 colon = test system: SW-620 colon
MDA-MB-468 breast = test system: MDA-MB-468 breast
NCI-H322M lung = test system: NCI-H322M lung
CAKI-1 renal = test system: CAKI-1 renal
HS 578T breast = test system: HS 578T breast
HCT-116 colon = test system: HCT-116 colon
BT-549 breast = test system: BT-549 breast

## CS(=O)(=O)CCNCc1ccc(-c2ccc3ncnc(Nc4ccc(OCc5cccc(F)c5)c(Cl)c4)c3c2)o1
ACHN renal
  GI50: 0.398 µM
  TGI: 8.09 µM
SN12C renal
  GI50: 2.16 µM
  TGI: 7.1 µM
OVCAR-3 ovarian
  GI50: 1.58 µM
  TGI: 2.96 µM
UO-31 renal
  GI50: 1.09 µM
  TGI: 3.89 µM
SR leukemia
  GI50: 2.09 µM
  TGI: 3.53 µM
EKVX NSCLC
  GI50: 0.777 µM
  TGI: 3.13 µM
SW-620 colon
  GI50: 1.99 µM
  TGI: 3.5 µM
MDA-MB-468 breast
  GI50: 0.0452 µM
  TGI: 0.26 µM
NCI-H322M lung
  GI50: 0.179 µM
  TGI: 1.14 µM
CAKI-1 renal
  GI50: 1.46 µM
  TGI: 2.97 µM
HS 578T breast
  GI50: 1.97 µM
  TGI: 3.48 µM
HCT-116 colon
  GI50: 1.85 µM
  TGI: 3.45 µM
BT-549 breast
  GI50: 1.65 µM
  TGI: 3.01 µM
